Results reported in patent US10940188B2, “Compounds and methods for treatment and prevention of Flavivirus infection” (priority 2016, dated 2021).
Structures can show the parent of a compound that is named as a salt. Where two headings read alike, the source gives them in different places. Numbered stars: 1 amine (or outer) side, 2 acyl side, 3 side chain; on linkers, the order of the positions; unused ones are H or OH. Bridge positions count the residues as written; N and C are the ends. Square brackets hold non-standard residues; d marks the D form. Peptide text beside a SMILES is read from it. I, II: the chains in the order shown. Actinocin(9to1) = Cc1c2oc3c(C)ccc(C(=O)[*:1])c3nc-2c(C(=O)[*:2])c(N)c1=O; NMeV = CN[C@H](C(=O)O)C(C)C; Sar = CNCC(=O)O

What was measured:
ZIKV MR766 NS1 = experiment: microbe, parasite or virus in culture; format: cell-based, Zika virus; conditions: read-out: NS1-IC50
Protocol: A one-step NS1 TR-FRET (Time-resolved fluorescence resonance energy transfer) assay for a screen of anti-ZIKV compounds was carried out. Human embryonic kidney cell line HEK293 cells were seeded into 384-well plates and infected with ZIKV MR766 at a MOI of 0.5 for 2 days. The FRET assay was performed with two clones of anti-NS1 antibody (ab) differentially labelled with donor and acceptor fluorophores.

HEK293 cells = experiment: Toxicity IC50 (cell-killing activity) of the NS1 TR-FRET screen; format: cell-based, human
[1] = Homo sapiens, HEK293, cell-killing activity, read-out: Tox IC50
[2] = HEK293 cells, ZIKV MR766, MOI 0.5, 2 days, virus-inhibiting activity
[3] = cell-killing activity, read-out: Tox IC50

SMILES	IC50 (ZIKV MR766 NS1; Zika virus, HEK293, 48 h) [µM]	Tox IC50 (HEK293 cells; cell-killing activity)	IC50 (ZIKV MR766 NS1; [2]) [µM]	also measured
CC(=O)O[C@H]1C(=O)[C@@]2(C)[C@H]([C@H](OC(=O)c3ccccc3)[C@]3(O)C[C@H](OC(=O)[C@H](O)[C@@H](NC(=O)c4ccccc4)c4ccccc4)C(C)=C1C3(C)C)[C@]1(OC(C)=O)CO[C@@H]1C[C@@H]2O [PACLITAXEL]	0.0894	No		
CCC[C@H](Nc1nc(-c2ccc(NC(=O)NCC)c(OC)c2)ncc1C)c1cccnc1 [Lexibulin hydrochloride]	0.171	No		
CC(C)C[C@H](NC(=O)[C@@H](NC(=O)c1cccc(-c2ccccc2)n1)[C@@H](C)O)B(O)O [Delanzomib]	0.0585			IC50 (HEK293 cells; [1]): 0.3 µM
Cc1c2oc3c(C)ccc(C(=O)N[C@@H]4C(=O)N[C@H](C(C)C)C(=O)N5CCC[C@H]5C(=O)N(C)CC(=O)N(C)[C@@H](C(C)C)C(=O)O[C@@H]4C)c3nc-2c(C(=O)N[C@@H]2C(=O)N[C@H](C(C)C)C(=O)N3CCC[C@H]3C(=O)N(C)CC(=O)N(C)[C@@H](C(C)C)C(=O)O[C@@H]2C)c(N)c1=O [Actinomycin D] (I: T[dV]P[Sar][NMeV] / II: T[dV]P[Sar][NMeV]; ester I:1-I:C, II:1-II:C; linker I:N-II:N via Actinocin(9to1))		No	0.352	
Cc1ccc(C(=O)N(CCCN)[C@@H](c2nc3cc(Cl)ccc3c(=O)n2Cc2ccccc2)C(C)C)cc1 [Ispinesib]	0.0674			IC50 (HEK293 cells; [1]): 37.5 µM
CC(C)C[C@H](NC(=O)CNC(=O)c1cc(Cl)ccc1Cl)B(O)O [MLN-2238]	0.234			IC50 (HEK293 cells; [1]): 2.13 µM
CC(C)[C@]12O[C@H]1[C@@H]1O[C@]13[C@]1(O[C@H]1C[C@H]1C4=C(CC[C@@]13C)C(=O)OC4)[C@@H]2O [Triptolide]	0.465	No		
O=C1c2c(O)ccc(O)c2C(=O)c2c(NCCNCCO)ccc(NCCNCCO)c21 [Mitoxantrone]	0.232			IC50 (HEK293 cells; [1]): 50 µM
CCc1c2c(nc3ccc(O)cc13)-c1cc3c(c(=O)n1C2)COC(=O)[C@]3(O)CC [SN-38]		No	0.0113	
Nc1ccc(-c2ccc3ncc4ccc(=O)n(-c5cccc(C(F)(F)F)c5)c4c3c2)cn1 [Torin-2]		No	0.724	
CC[C@]1(O)C[C@H]2CN(CCc3c([nH]c4ccccc34)[C@@](C(=O)OC)(c3cc4c(cc3OC)N(C=O)[C@H]3[C@@](O)(C(=O)OC)[C@H](OC(C)=O)[C@]5(CC)C=CCN6CC[C@]43[C@@H]65)C2)C1 [Vincristine sulfate]	0.156	No		
C[C@H]1CCC/C=C/[C@@H]2C[C@H](O)C[C@H]2[C@H](O)/C=C/C(=O)O1 [Cyanein]		No	0.432	
CC[C@@]1(O)C(=O)OCc2c1cc1n(c2=O)Cc2cc3c(CN(C)C)c(O)ccc3nc2-1 [Topotecan hydrochloride]	0.0514	No		
O=C(Cc1ccc(-c2ccc(OCCN3CCOCC3)cc2)cn1)NCc1ccccc1 [KX-01]			0.481	IC50 (HEK293 cells; [3]): 19.3 µM
CC[C@]1(O)C[C@@H]2CN(CCc3c([nH]c4ccccc34)[C@@](C(=O)OC)(c3cc4c(cc3OC)N(C)[C@H]3[C@@](O)(C(N)=O)[C@H](O)[C@]5(CC)C=CCN6CC[C@]43[C@@H]65)C2)C1 [Vindesine sulfate salt]	0.664	No		
COc1cccc2c1C(=O)c1c(O)c3c(c(O)c1C2=O)C[C@@](O)(C(C)=O)C[C@@H]3O[C@H]1C[C@H](N)[C@H](O)[C@H](C)O1 [Daunorubicin]	0.536	No		
CC[C@@]1(O)C(=O)OCc2c1cc1n(c2=O)Cc2cc3ccccc3nc2-1 [(S)-(+)-Camptothecin]		No	0.0264	
CC[C@@H]1C(=O)N(C)c2cnc(Nc3ccc(C(=O)N[C@H]4CC[C@H](N5CCN(CC6CC6)CC5)CC4)cc3OC)nc2N1C(C)C [Volasertib]	0.0648	No		
CC[C@@]1(O)C(=O)OCc2c1cc1n(c2=O)Cc2cc3cc(O)ccc3nc2-1 [10-hydroxycamptothecin]		No	0.0466	
C[C@@H]1C[C@@H]([C@H](O)CC2CC(=O)NC(=O)C2)C(=O)[C@@H](C)C1 [Cycloheximide]	0.287	No		
O=c1[nH]c(=O)n([C@H]2C[C@H](O)[C@@H](CO)O2)cc1F [Floxuridine]	0.918			IC50 (HEK293 cells; [1]): 60 µM

SMILES	IC50 (ZIKV MR766 NS1; Zika virus, HEK293, 48 h) [µM]	Tox IC50 (HEK293 cells; cell-killing activity)	IC50 (ZIKV MR766 NS1; [2]) [µM]	also measured
C[C@H]1O[C@@H](O[C@H]2[C@@H](O)C[C@H](O[C@H]3[C@@H](O)C[C@H](O[C@H]4CC[C@@]5(C)[C@H](CC[C@@H]6[C@@H]5C[C@@H](O)[C@]5(C)[C@@H](C7=CC(=O)OC7)CC[C@]65O)C4)O[C@@H]3C)O[C@@H]2C)C[C@H](O)[C@@H]1O [Digoxin]	0.152			IC50 (HEK293 cells; [1]): 60 µM
COC(=O)[C@]12CCC(C)(C)C[C@H]1[C@H]1C(=O)C=C3[C@@]4(C)C=C(C#N)C(=O)C(C)(C)[C@@H]4CC[C@@]3(C)[C@]1(C)CC2 [Bardoxolone methyl]	0.282			IC50 (HEK293 cells; [1]): 2.68 µM
C/C=C(/C)C(=O)O[C@H]1C(C)=C2[C@H]([C@@H]1OC(=O)CCCCCCC)[C@@](C)(OC(C)=O)C[C@H](OC(=O)CCC)[C@@]1(O)[C@H]2OC(=O)[C@@]1(C)O [Thapsigargin]	0.171			IC50 (HEK293 cells; [1]): 40 µM
C[C@]1(CO)CN(c2cc(C(=O)Nc3ccc4c(c3)-c3c(c(C(N)=O)nn3-c3ccc(F)cc3)CC4)c(Cl)cn2)C[C@@]1(C)CO [PF-184]		No	0.388	
CC(C)c1nn(-c2c(Cl)cccc2Cl)c2nc(Cc3ccc(OCCO)cc3)[nH]c(=O)c12 [RGB-286147]		No	0.268	
CC(=O)[C@]1(O)Cc2c(O)c3c(c(O)c2[C@@H](O[C@H]2C[C@H](N)[C@H](O)[C@H](C)O2)C1)C(=O)c1ccccc1C3=O [Idarubicin hydrochloride]	0.168	No		
CC(C)C[C@H](NC(=O)CNC(=O)c1cc(Cl)ccc1Cl)B1OC(=O)C(CC(=O)O)(CC(=O)O)O1 [Ixazomib citrate]	0.196			IC50 (HEK293 cells; [1]): 1.58 µM
NC(=O)Nc1cc(-c2cccc(F)c2)sc1C(=O)N[C@H]1CCCNC1 [AZD-7762]	0.366	No		
Cn1cc(-c2[nH]c3cc(NC(=O)[C@H](N)C4CCCCC4)cc4c3c2C=NNC4=O)cn1 [PF-477736]		No	0.489	
CC[C@H](CC#N)OC(=O)N[C@@H](C)c1cccc(NC(=O)Nc2ccc(-c3cnco3)c(OC)c2)c1 [AVN-944]	0.136			IC50 (HEK293 cells; Homo sapiens, HEK293, read-out: Tox IC50): 20 µM
Cn1c2ccccc2c2c3c(c4c5ccccc5n(CCC#N)c4c21)CNC3=O [Go-6976]	0.944			IC50 (HEK293 cells; [1]): 20.2 µM
CN[C@@H]1C[C@H]2O[C@@](C)([C@@H]1OC)n1c3ccccc3c3c4c(c5c6ccccc6n2c5c31)C(=O)N[C@H]4O [7-Hydroxystaurosporine]			0.76	IC50 (HEK293 cells; [3]): 102 µM
COc1c(C)c2c(c(O)c1C/C=C(\C)CCC(=O)OCCN1CCOCC1)C(=O)OC2 [Mycophenolate mofetil]	0.529	No		
O=c1[nH]c2ccc(Cl)cc2c(N[C@@H]2CN3CCC2CC3)c1-c1nc2ccccc2[nH]1 [CHIR-124]			0.405	IC50 (HEK293 cells; [3]): 3.25 µM
CS[C@H]1SC[C@H]2C(=O)N(C)[C@@H](C(C)C)C(=O)OC[C@@H](NC(=O)c3cnc4ccccc4n3)C(=O)N[C@@H](C)C(=O)N(C)[C@@H]1C(=O)N(C)[C@@H](C(C)C)C(=O)OC[C@@H](NC(=O)c1cnc3ccccc3n1)C(=O)N[C@@H](C)C(=O)N2C [Echinomycin]	0.0174	No		
C/C=C(\C)C(=O)N[C@@H](c1ccccc1)[C@@H](O)C(=O)O[C@H]1C[C@@]2(O)[C@@H](OC(=O)c3ccccc3)[C@@H]3[C@]4(OC(C)=O)CO[C@@H]4C[C@H](O)[C@@]3(C)C(=O)[C@H](OC(C)=O)C(=C1C)C2(C)C [Cephalomannine]	0.221	No		
Cc1ccc([N+](=O)[O-])cc1S(=O)(=O)N(C)/N=C/c1cnc2ccc(Br)cn12 [PIK-75]		No	0.616	
COc1c(C)c2c(c(O)c1C/C=C(\C)CCC(=O)O)C(=O)OC2 [Mycophenolic acid]	0.539	No		
NCC(=O)Nc1ccc(-n2nc(C(F)(F)F)cc2-c2ccc3c(ccc4ccccc43)c2)cc1 [OSU-03012]	0.992			IC50 (HEK293 cells; [1]): 10 µM
CCC1=C[C@@H]2CN(C1)Cc1c([nH]c3ccccc13)[C@@](C(=O)OC)(c1cc3c(cc1OC)N(C)[C@H]1[C@@](O)(C(=O)OC)[C@H](OC(C)=O)[C@]4(CC)C=CCN5CC[C@]31[C@@H]54)C2 [Vinorelbine tartrate]	0.27	No		
OCCCNc1cc(-c2ccnc(Nc3cccc(Cl)c3)n2)ccn1 [CGP-60474]			0.794	IC50 (HEK293 cells; [3]): 60 µM
